Reference: ChEMBL document CHEMBL1201862, “PubChem BioAssay data set” (2004)
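Five concentrations, 48 hours, 96-well plates. Abbreviation: GI50, concentration required for 50% inhibition of growth.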 Active and inactive are the calls of the source. Cut-off read from the data, not from the text of the source: active = GI50 up to about 1.1 µM and inactive = higher.

Key:
Assay in all cases: DTP human tumour cell line panel, 48 h
786-0 = test system: 786-0
A498 = test system: A498
A549 = test system: A549
ACHN = test system: ACHN
BT-549 = test system: BT-549
CAKI-1 = test system: CAKI-1
CCRF-CEM = test system: CCRF-CEM
COLO 205 = test system: COLO 205
DMS-114 = test system: DMS-114
DMS-273 = test system: DMS-273
DU-145 = test system: DU-145
EKVX = test system: EKVX
HCC 2998 = test system: HCC 2998
HCT-116 = test system: HCT-116
HCT-15 = test system: HCT-15
HL-60 = test system: HL-60
HOP-62 = test system: HOP-62
HOP-92 = test system: HOP-92
HT-29 = test system: HT-29
Hs-578T = test system: Hs-578T
IGROV-1 = test system: IGROV-1
K562 = test system: K562
KM-20L2 = test system: KM-20L2
KM12 = test system: KM12
LOX IMVI = test system: LOX IMVI
LXFL 529 = test system: LXFL 529
M14 = test system: M14
MCF7 = test system: MCF7
MDA-MB-231 = test system: MDA-MB-231
MDA-MB-435 = test system: MDA-MB-435
MDA-N = test system: MDA-N
MOLT-4 = test system: MOLT-4
Malme-3M = test system: Malme-3M
NCI-H226 = test system: NCI-H226
NCI-H23 = test system: NCI-H23
NCI-H460 = test system: NCI-H460
NCI-H522 = test system: NCI-H522
NCI/ADR-RES = test system: NCI/ADR-RES
OVCAR-3 = test system: OVCAR-3
OVCAR-4 = test system: OVCAR-4
OVCAR-5 = test system: OVCAR-5
OVCAR-8 = test system: OVCAR-8
PC-3 = test system: PC-3
RPMI-8226 = test system: RPMI-8226
RXF 393 = test system: RXF 393
RXF 631 = test system: RXF 631
SF-268 = test system: SF-268
SF-295 = test system: SF-295
SF-539 = test system: SF-539
SK-MEL-28 = test system: SK-MEL-28
SK-MEL-2 = test system: SK-MEL-2
SK-MEL-5 = test system: SK-MEL-5
SK-OV-3 = test system: SK-OV-3
SN12C = test system: SN12C
SNB-19 = test system: SNB-19
SNB-75 = test system: SNB-75
SNB-78 = test system: SNB-78
SR = test system: SR
SW-620 = test system: SW-620
T47D = test system: T47D
TK-10 = test system: TK-10
U-251 = test system: U-251
UACC-257 = test system: UACC-257
UACC-62 = test system: UACC-62
UO-31 = test system: UO-31
XF498 = test system: XF498

In the case of `CCN(CC)CCn1c2ccccc2c(=O)c2c(O)ccc(O)c21`, the GI50 (786-0) is reported as 34.1 µM (inactive), the GI50 (A498) is reported as 74.3 µM (inactive) and the GI50 (A549) is reported as 83.9 µM (inactive). For the same compound, the GI50 (ACHN) was 33.7 µM (inactive), the GI50 (BT-549) was 22.5 µM (inactive) and the GI50 (CAKI-1) was 35.5 µM (inactive). For the same compound, the GI50 (CCRF-CEM) was 11 µM (inactive), the GI50 (COLO 205) was 20.6 µM (inactive) and the GI50 (DMS-114) was 18.5 µM (inactive). For the same compound, the GI50 (DMS-273) was 99.1 µM (inactive), the GI50 (DU-145) was > 59.4 µM (inactive) and the GI50 (EKVX) was > 46.5 µM (inactive). For the same compound, the GI50 (HCC 2998) was > 41.3 µM (inactive), the GI50 (HCT-116) was 31.1 µM (inactive) and the GI50 (HCT-15) was 33.8 µM. The GI50 (HL-60) was 6.49 µM (inactive), the GI50 (HOP-62) was 50.5 µM (inactive) and the GI50 (HOP-92) was 19.4 µM (inactive). The GI50 (HT-29) was 35.9 µM (inactive), the GI50 (Hs-578T) was 22.1 µM (inactive) and the GI50 (IGROV-1) was 38.5 µM (inactive). For the same compound, the GI50 (K562) was 15.9 µM (inactive), the GI50 (KM-20L2) was > 100 µM (inactive) and the GI50 (KM12) was 49.2 µM (inactive). For the same compound, the GI50 (LOX IMVI) was 15.1 µM (inactive), the GI50 (LXFL 529) was 19.9 µM (inactive) and the GI50 (M14) was 42 µM (inactive). The GI50 (MCF7) was 18.8 µM (inactive), the GI50 (MDA-MB-231) was 16.1 µM (inactive) and the GI50 (MDA-MB-435) was 18.6 µM (inactive). The GI50 (MDA-N) was 18.7 µM (inactive), the GI50 (MOLT-4) was 18.5 µM (inactive) and the GI50 (Malme-3M) was 24.7 µM (inactive). The GI50 (NCI-H226) was 53.6 µM (inactive), the GI50 (NCI-H23) was 45.6 µM (inactive) and the GI50 (NCI-H460) was > 57.9 µM (inactive). The GI50 (NCI-H522) was 15.4 µM (inactive), the GI50 (NCI/ADR-RES) was 19.6 µM (inactive) and the GI50 (OVCAR-3) was 31.5 µM (inactive). For the same compound, the GI50 (OVCAR-4) was 17.3 µM (inactive), the GI50 (OVCAR-5) was 55.7 µM (inactive) and the GI50 (OVCAR-8) was 19.6 µM (inactive). For the same compound, the GI50 (PC-3) was 24.5 µM (inactive), the GI50 (RPMI-8226) was 19.9 µM (inactive) and the GI50 (RXF 393) was 19 µM (inactive). For the same compound, the GI50 (RXF 631) was > 45.7 µM (inactive), the GI50 (SF-268) was 30.5 µM (inactive) and the GI50 (SF-295) was 22.5 µM (inactive). For the same compound, the GI50 (SF-539) was 33.8 µM (inactive), the GI50 (SK-MEL-28) was 33.2 µM (inactive) and the GI50 (SK-MEL-2) was 33.4 µM (inactive). For the same compound, the GI50 (SK-MEL-5) was 21.3 µM (inactive), the GI50 (SK-OV-3) was 69.8 µM (inactive) and the GI50 (SN12C) was 30.8 µM (inactive). The GI50 (SNB-19) was 58.9 µM (inactive), the GI50 (SNB-75) was 22.3 µM (inactive) and the GI50 (SNB-78) was 23.4 µM (inactive). For the same compound, the GI50 (SR) was 12.4 µM (inactive), the GI50 (SW-620) was 13.8 µM (inactive) and the GI50 (T47D) was 18.2 µM (inactive). For the same compound, the GI50 (TK-10) was 31.6 µM (inactive), the GI50 (U-251) was 42.1 µM (inactive) and the GI50 (UACC-257) was 36.9 µM (inactive). For the same compound, the GI50 (UACC-62) was 3.48 µM (inactive), the GI50 (UO-31) was 47.4 µM (inactive) and the GI50 (XF498) was 21.6 µM (inactive).
